Data published in patent US10301690B2, “Streptomyces filamentosus variant and method for producing daptomycin using same” (priority 2013, dated 2019).

Tested on: Staphylococcus aureus
Experiment: Agar-well method: growth inhibition of the indicator strain
Format: cell-based
Conditions: 130 μl in agar well, read-out: Radius of inhibition zone
Experimental: A parent strain, streptomyces filamentosus ATCC 31568 was cultured by slant culture at 30° C. for 12 days to collect spores, and then the spores were suspended in a physiological saline, followed by serial dilution of 10^−2, 10^−3, and 10^−4, and plating on plate media. After pre-incubation at 30° C. for 2 hours, the plates were irradiated for 118 seconds in a glove box placed at a distance of 65 cm from two 20 W UV bulbs of 280 nm wavelength. In this regard, the death rate was 99.9%. […] Colonies that survived on the agar plates at 30° C. for 6 days were collected, followed by seed culture and fermentation culture according to a method of the following Example 4. Fermentation was performed using a 500 ml-baffled flask in a shaking incubator under conditions of 30° C., 260 rpm for 7 days.
After completion of the culture, the culture broth was centrifuged. An agar-well method which is a biological detection method was used in order to examine growth inhibition of an indicator strain, Staphylococcus aureus. The agar-well method was applied to the analysis, because this method is an easy and simple method with lower errors, compared to other methods. This method is based on a principle that a diffusion rate is determined by a difference in a concentration gradient upon diffusion of a sample on an agar gel, and the radius of inhibition zone for a predetermined time is known to be proportional to the log of the concentration value. Based on this principle, antibiotic concentrations in unknown samples can be measured. This method was performed by the following procedure: before a trypticase soy broth agar medium solidified, the indicator strain Staphylococcus aureus was added thereto and uniformly suspended therein. The medium was poured into a […] and allowed to solidify. Next, wells were punched into the agar using a stainless steel borer having a diameter of 5 mm, and agar in the well was suctioned by vacuum aspiration. The amount of the sample in the agar well was 130 μl, and a control group daptomycin was prepared and used in an amount of 0, 50, 100, 200, 300, and 1000 μg/ml.

CCCCCCCCCC(=O)N[C@@H](Cc1c[nH]c2ccccc12)C(=O)N[C@H](CC(N)=O)C(=O)N[C@@H](CC(=O)O)C(=O)N[C@@H]1C(=O)NCC(=O)N[C@@H](CCCN)C(=O)N[C@@H](CC(=O)O)C(=O)N[C@H](C)C(=O)N[C@@H](CC(=O)O)C(=O)NCC(=O)N[C@H](CO)C(=O)N[C@@H]([C@H](C)CC(=O)O)C(=O)N[C@@H](CC(=O)c2ccccc2N)C(=O)O[C@@H]1C [Daptomycin, daptomycin]
zone of inhibition at 50 µg/mL (Daptomycin control 0.05 mg/ml): 8.6 mm | zone of inhibition at 100 µg/mL (Daptomycin control 0.10 mg/ml): 10.6 mm | zone of inhibition at 200 µg/mL (Daptomycin control 0.20 mg/ml): 12 mm | zone of inhibition at 300 µg/mL (Daptomycin control 0.30 mg/ml): 13.2 mm | zone of inhibition at 1000 µg/mL (Daptomycin control 1.00 mg/ml): 16 mm
